{
  "source": "patent US12409172B2",
  "about": "“Dosage regimen” (UNION therapeutics A/S, priority 2023, dated 2025)",
  "key": {"[1]": {"system": "human peripheral blood mononuclear cells PBMC", "details": "in vitro; cited from earlier work"}, "[2]": {"system": "adults with moderate to severe atopic dermatitis", "experiment": "Phase 2b dose-ranging study in atopic dermatitis (Example 8): efficacy (EASI, IGA-AD, PGIC)", "format": "in vivo, human", "details": "for patients achieving IGA0/1 responses at week 16: MI", "description": "A 16-week, phase 2b, double-blinded, placebo-controlled, dose-finding study assessing efficacy and safety of orismilast modified-release (MR) tablets in adults with moderate-to-severe atopic dermatitis was carried out (NCT05469464). Patients were randomized (1:1:1:1) to orismilast 20, 30, 40 mg or placebo, twice daily. Randomized and dosed patients were included in the Intent-to-Treat Population (used for efficacy and safety). Missing data was handled using Multiple Imputation (MI) for the analysis of primary and secondary efficacy endpoints.\nThe exploratory objectives are to: • Evaluate pharmacokinetic (PK) and pharmacodynamic parameters relevant to AD • Evaluate the effect of orismilast on the pulmonary status and course of the disease in patients with asthma Primary Endpoint • Percentage change in Eczema Area and Severity Index (EASI) score from Baseline at Week 16. […]"}, "[3]": {"system": "TNF-α secretion from human whole blood", "details": "in vitro; cited from earlier work"}},
  "data": [
    {"smiles": "O=C(Cc1c(Cl)c[n+]([O-])cc1Cl)c1ccc(OC(F)F)c2c1OC1(CCS(=O)(=O)CC1)O2", "note": "[orismilast, 2-(3,5-dichloro-1-oxidopyridin-1-ium-4-yl)-1-[7-(difluoromethoxy)-1′,1′-dioxospiro[1,3-benzodioxole-2,4′-thiane]-4-yl]ethanone]", "values": [
      {"measurement": "secretion of Th1 (TNFα and IFNγ), Th17 (IL-22 and IL-23) and Th2 (IL-4, IL-5, and IL-13) related cytokines in PBMC", "setting": "[1]", "result": "inhibited"},
      {"measurement": "patients achieving IGA0/1 responses at week 16", "setting": "[2]; 20 mg BID (n=58)", "result": 26.3, "unit": "%"},
      {"measurement": "patients achieving IGA0/1 responses at week 16", "setting": "[2]; 30 mg BID (n=61)", "result": 24.3, "unit": "%"},
      {"measurement": "mean percentage change in EASI at week 16", "setting": "[2]; 30 mg BID, p>0,05", "result": "−52.2", "unit": "%"},
      {"measurement": "patients achieving IGA0/1 responses at week 16", "setting": "[2]; 40 mg BID (n=59)", "result": 30.9, "unit": "%"},
      {"measurement": "Patient Global Impression of Change of \"much improved\" or \"very much improved\" compared to placebo at week 16", "setting": "[2]; active arms (20, 30, 40 mg BID)", "result": "improved significantly"},
      {"measurement": "production of tumour necrosis factor α (TNFα) in human whole blood and PBMC", "setting": "[3]", "result": "inhibited"}
    ]}
  ]
}
